In brackets after ≈: the same amount, converted by molar mass.
Key:
[1] = system: Klebsiella pneumoniae K1-168; assay: MIC by agar dilution method, Klebsiella pneumoniae K1-168; conditions: K1168, read-out: Minimum Inhibitory Concentration (MIC)
Procedure: (§1) MIC was determined by the following agar dilution method.
(§2) One loopful of a strain of bacteria to be tested on agar slant was inoculated into a medium for growth of inoculum (Trypto Soy Broth; Eiken Chemical Co.) and incubated at 37° C. overnight.
(§3) A sample solution of aminoglycoside derivative was subjected to serial two-fold dilutions with sterile water. This diluted sample solutions were distributed to the Modified Mueller Hinton Agar medium (Nissui-seiyaku Co.), mixed gently and allowed to solidify.
(§4) One loopful of the bacterial suspension prepared in (1) was placed on the surface of the medium prepared in (2) containing the aminoglycoside derivative in various concentrations at 10^6 CFU/ml inoculum size.

[2] = system: Escherichia coli W-677/JR 762; assay: MIC by agar dilution method, Escherichia coli W-677/JR 762; conditions: W677/JR762, read-out: Minimum Inhibitory Concentration (MIC)
Procedure: as §1, §2, §3, §4

[3] = system: Pseudomonas aeruginosa PP-6; assay: MIC by agar dilution method, Pseudomonas aeruginosa PP-6; conditions: PP6, read-out: Minimum Inhibitory Concentration (MIC)
Procedure: as §1, §2, §3, §4

Compound | MIC [1] [µg/mL] | MIC [2] [µg/mL] | MIC [3] [µg/mL]
NC[C@H]1O[C@H](O[C@H]2[C@H](O)[C@@H](O[C@H]3O[C@H](CO)[C@@H](O)[C@H](N)[C@H]3O)[C@H](N)C[C@@H]2N)[C@H](N)C[C@@H]1O [TOB, tobramycin, reference compound] | 100 (≈ 214 µM) | 50 (≈ 107 µM) | > 100
NC[C@H]1O[C@H](O[C@H]2[C@H](O)[C@@H](O[C@H]3O[C@H](CO)[C@@H](O)[C@H](N)[C@H]3O)[C@H](NC3=NCC[C@@H]3O)C[C@@H]2N)[C@H](N)C[C@@H]1O [[A], 1N-[(S)(-)-3-hydroxy-1-pyrrolin-2-yl]tobramycin] | 3.1 (≈ 5.63 µM) | 12.5 (≈ 22.7 µM) | 3.1 (≈ 5.63 µM)
NC[C@H]1O[C@H](O[C@H]2[C@H](O)[C@@H](O[C@H]3O[C@H](CO)[C@@H](O)[C@H](N)[C@H]3O)[C@H](NC3=NCCC[C@@H]3O)C[C@@H]2N)[C@H](N)C[C@@H]1O [[B], 1N-[(S)(-)-3-hydroxy-3,4,5,6-tetrahydropyridin-2-yl]tobramycin] | 3.1 (≈ 5.49 µM) | 12.5 (≈ 22.1 µM) | 6.2 (≈ 11 µM)
